pKi: −log10 of the molar value.
Assays:
[1] = target: T1, Induced myeloid leukemia cell differentiation protein Mcl-1 (Homo sapiens, UniProt Q07820); experiment: Inhibition of FITC-Bak-BH3 binding to recombinant MBP-fused MCL1 (172 to 318 residues) (unknown origin) by TR-FRET assay
[2] = target: T1, Induced myeloid leukemia cell differentiation protein Mcl-1; experiment: Inhibition of FITC-Bak-BH3 binding to recombinant MBP-fused MCL1 (172 to 318 residues) (unknown origin) in presence of 1% FBS by TR-FRET assay

T1 sequence (Q07820 whole entry, the tested form may be a part): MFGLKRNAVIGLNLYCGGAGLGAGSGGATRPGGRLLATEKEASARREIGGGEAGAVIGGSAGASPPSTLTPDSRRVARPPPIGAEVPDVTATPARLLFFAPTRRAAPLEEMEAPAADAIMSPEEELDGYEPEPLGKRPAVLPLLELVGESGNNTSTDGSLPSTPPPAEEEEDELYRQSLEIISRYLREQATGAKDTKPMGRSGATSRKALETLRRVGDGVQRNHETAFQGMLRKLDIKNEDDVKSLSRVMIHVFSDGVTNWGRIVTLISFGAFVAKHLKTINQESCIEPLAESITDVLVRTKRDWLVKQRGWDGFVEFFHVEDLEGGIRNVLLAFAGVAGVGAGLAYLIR

pKi [1] | pKi [2] | Structure (SMILES)
7.70 | 7.49 | Cc1cc(OCCCc2c(C(=O)O)[nH]c3c(-c4c(COCCN(C)C)nn(C)c4C)cccc23)cc(C)c1Cl
7.32 | 6.58 | Cc1cc(OCCCc2c(C(=O)O)[nH]c3c(-c4c(C)nn(C)c4C)cccc23)cc(C)c1Cl
7.66 | 7.14 | Cc1cc(OCCCc2c(C(=O)O)[nH]c3c(-c4c(CN5CCCCC5)nn(C)c4C)cccc23)cc(C)c1Cl

Reference: ChEMBL document CHEMBL4033646, “Structure of a Myeloid cell leukemia-1 (Mcl-1) inhibitor bound to drug site 3 of Human Serum Albumin” (Bioorg Med Chem, 2017)
